Source: ChEMBL document CHEMBL1201862, “PubChem BioAssay data set” (2004)
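These data come from cells grown in 96-well plates and exposed to compound for 48 hours at five concentrations. GI50 marks 50% less growth.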 Activity calls are given as the source filed them. No stated cut-off is given here; in the data, active = GI50 up to about 1.1 µM and inactive = higher.

What was measured:
Experiment in all cases: NCI anticancer screen, dose series, 48 h
SNB-19 = system: SNB-19
RXF 393 = system: RXF 393
ACHN = system: ACHN
K562 = system: K562
SK-MEL-5 = system: SK-MEL-5
SNB-75 = system: SNB-75
OVCAR-5 = system: OVCAR-5
DU-145 = system: DU-145
MDA-N = system: MDA-N
EKVX = system: EKVX
HCC 2998 = system: HCC 2998
HOP-62 = system: HOP-62
NCI-H460 = system: NCI-H460
UACC-62 = system: UACC-62
KM12 = system: KM12
OVCAR-8 = system: OVCAR-8
HL-60 = system: HL-60
SW-620 = system: SW-620
PC-3 = system: PC-3
MDA-MB-231 = system: MDA-MB-231
Malme-3M = system: Malme-3M
IGROV-1 = system: IGROV-1
SF-539 = system: SF-539
Hs-578T = system: Hs-578T
MCF7 = system: MCF7
786-0 = system: 786-0
OVCAR-3 = system: OVCAR-3
LOX IMVI = system: LOX IMVI
NCI-H522 = system: NCI-H522
TK-10 = system: TK-10
NCI/ADR-RES = system: NCI/ADR-RES
A549 = system: A549
COLO 205 = system: COLO 205
HCT-15 = system: HCT-15
SK-MEL-28 = system: SK-MEL-28
MOLT-4 = system: MOLT-4
SR = system: SR
RPMI-8226 = system: RPMI-8226
MDA-MB-435 = system: MDA-MB-435
U-251 = system: U-251
SK-MEL-2 = system: SK-MEL-2
UACC-257 = system: UACC-257
SF-295 = system: SF-295
NCI-H23 = system: NCI-H23
BT-549 = system: BT-549
SN12C = system: SN12C
UO-31 = system: UO-31
CCRF-CEM = system: CCRF-CEM
HCT-116 = system: HCT-116
HT-29 = system: HT-29
SF-268 = system: SF-268
OVCAR-4 = system: OVCAR-4
A498 = system: A498
M14 = system: M14
NCI-H226 = system: NCI-H226
CAKI-1 = system: CAKI-1
HOP-92 = system: HOP-92
SK-OV-3 = system: SK-OV-3

Measured: GI50

CN(C)c1ccc(C(N)=O)cn1
inactive: SNB-19 > 100 µM | RXF 393 > 100 µM | ACHN > 100 µM | K562 > 100 µM | SK-MEL-5 > 100 µM | SNB-75 > 100 µM | OVCAR-5 > 100 µM | DU-145 > 100 µM | MDA-N > 100 µM | EKVX > 100 µM | HCC 2998 > 100 µM | HOP-62 > 100 µM | NCI-H460 > 100 µM | UACC-62 > 100 µM | KM12 > 100 µM | OVCAR-8 > 100 µM | HL-60 > 100 µM | SW-620 > 100 µM | PC-3 > 100 µM | MDA-MB-231 > 100 µM | Malme-3M > 100 µM | IGROV-1 > 100 µM | SF-539 > 100 µM | Hs-578T > 100 µM | MCF7 > 100 µM | 786-0 > 100 µM | OVCAR-3 > 100 µM | LOX IMVI > 100 µM | NCI-H522 > 100 µM | TK-10 > 100 µM | NCI/ADR-RES > 100 µM | A549 > 100 µM | COLO 205 > 100 µM | SK-MEL-28 > 100 µM | MOLT-4 > 100 µM | SR > 100 µM | RPMI-8226 > 100 µM | MDA-MB-435 > 100 µM | U-251 > 100 µM | SK-MEL-2 > 100 µM | UACC-257 > 100 µM | SF-295 > 100 µM | NCI-H23 > 100 µM | BT-549 > 100 µM | SN12C > 100 µM | UO-31 > 100 µM | CCRF-CEM > 100 µM | HCT-116 > 100 µM | HT-29 > 100 µM | SF-268 > 100 µM
> 100 µM: HCT-15

CC(/C=C/C=C/C=C/C=C/C=C/C(=O)C1=C(O)C(CCC(=O)O)N(C)C1=O)=C\C(C)C(OC1CC(O)C(O)C(C)O1)C(C)C (centres undefined)
3.68 µM: HCT-15
inactive: SNB-19 2.81 µM | RXF 393 3.07 µM | ACHN 3.13 µM | K562 3.71 µM | SK-MEL-5 1.91 µM | SNB-75 3.89 µM | OVCAR-4 5.75 µM | OVCAR-5 2.27 µM | A498 2.84 µM | DU-145 3.42 µM | MDA-N 2.97 µM | EKVX 3.31 µM | HCC 2998 2.15 µM | HOP-62 1.87 µM | NCI-H460 2.96 µM | KM12 1.88 µM | OVCAR-8 3.74 µM | HL-60 2.43 µM | SW-620 4.13 µM | PC-3 3.32 µM | MDA-MB-231 2.9 µM | Malme-3M 2.23 µM | IGROV-1 1.82 µM | SF-539 2.56 µM | M14 3.26 µM | NCI-H226 3.48 µM | Hs-578T 5.85 µM | MCF7 4.35 µM | 786-0 3.15 µM | OVCAR-3 1.98 µM | LOX IMVI 3.44 µM | NCI-H522 2.91 µM | TK-10 2.49 µM | NCI/ADR-RES 13 µM | A549 3.19 µM | COLO 205 2.18 µM | SK-MEL-28 2.68 µM | CAKI-1 3.5 µM | MOLT-4 2.82 µM | SR 3.85 µM | RPMI-8226 3.13 µM | MDA-MB-435 3 µM | U-251 3.6 µM | SK-MEL-2 1.78 µM | UACC-257 2.15 µM | SF-295 3.8 µM | HOP-92 2.72 µM | NCI-H23 2.62 µM | BT-549 2.11 µM | SN12C 3.33 µM | UO-31 3.3 µM | CCRF-CEM 3.26 µM | HCT-116 2.82 µM | HT-29 3.02 µM | SF-268 2.84 µM

CCOC(=O)CSC1NC(C(=O)OC)CC1OC (centres undefined)
> 100 µM: HCT-15
inactive: SNB-19 > 100 µM | RXF 393 > 100 µM | ACHN > 100 µM | K562 > 100 µM | SK-MEL-5 > 100 µM | SNB-75 > 100 µM | OVCAR-4 > 100 µM | OVCAR-5 > 100 µM | A498 > 100 µM | DU-145 > 100 µM | MDA-N > 100 µM | EKVX > 100 µM | HCC 2998 > 100 µM | HOP-62 > 100 µM | NCI-H460 67.6 µM | UACC-62 > 100 µM | KM12 > 100 µM | OVCAR-8 > 100 µM | SW-620 > 100 µM | PC-3 > 100 µM | MDA-MB-231 > 100 µM | Malme-3M > 100 µM | IGROV-1 > 100 µM | M14 > 100 µM | Hs-578T > 100 µM | SK-OV-3 > 100 µM | MCF7 > 100 µM | 786-0 > 100 µM | OVCAR-3 > 100 µM | NCI-H522 > 100 µM | TK-10 > 100 µM | NCI/ADR-RES > 100 µM | A549 > 100 µM | COLO 205 > 100 µM | SK-MEL-28 > 100 µM | CAKI-1 > 100 µM | MOLT-4 > 100 µM | RPMI-8226 > 100 µM | MDA-MB-435 > 100 µM | U-251 > 100 µM | SK-MEL-2 > 100 µM | UACC-257 > 100 µM | SF-295 > 100 µM | HOP-92 > 100 µM | NCI-H23 > 100 µM | BT-549 > 100 µM | UO-31 > 100 µM | CCRF-CEM 75 µM | HCT-116 > 100 µM | HT-29 > 100 µM | SF-268 > 100 µM
